Values after ≈ are worked out from the molar mass of the structure shown. Active and inactive are the calls of the source. The rule behind the calls is not given here.

Data set [1] has as its system HCT-116. The data set can be described thus: Antiproliferative activity against human HCT116 cells. In kind it is functional, cell-based.
The nature of data set [2]: Clearance in mouse at 10 mg/kg, iv. The format is ADME, organism-based. On the set-up: dose 10 mg/kg, route intravenous. The settings on record: in vivo.
Data set [3] deals with Histone deacetylase 3 (Homo sapiens, UniProt O15379). Description: Inhibition of HDAC3.
Chain of Histone deacetylase 3 (O15379 whole entry): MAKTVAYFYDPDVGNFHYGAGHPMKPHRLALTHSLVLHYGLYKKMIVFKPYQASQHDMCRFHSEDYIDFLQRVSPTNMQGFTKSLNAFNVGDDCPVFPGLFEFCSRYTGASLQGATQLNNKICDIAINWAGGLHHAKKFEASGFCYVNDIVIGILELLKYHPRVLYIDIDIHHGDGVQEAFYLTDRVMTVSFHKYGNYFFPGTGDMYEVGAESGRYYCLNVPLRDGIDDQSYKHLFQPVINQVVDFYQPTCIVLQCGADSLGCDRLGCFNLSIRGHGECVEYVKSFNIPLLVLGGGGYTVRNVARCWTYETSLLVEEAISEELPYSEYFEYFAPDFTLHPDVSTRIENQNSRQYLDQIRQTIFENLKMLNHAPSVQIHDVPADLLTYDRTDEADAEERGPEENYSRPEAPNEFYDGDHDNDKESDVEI
The test system of data set [4] is NCI-H522. Description: Antiproliferative activity against human NCI-H522 cells. The format is functional, cell-based.
Data set [5] addresses T1, Histone deacetylase 1 (Homo sapiens, UniProt Q13547).
For data set [6], the target named is T1, Histone deacetylase 1. Description: Inhibition of HDAC1 in human COLO205 cells assessed as induction of histone H3 acetylation at 10 uM by Western-immuno blotting. The format is cell-based. Conditions: COLO 205.
Data set [7] in a line: Half life in human liver microsome. The format is ADME. The settings on record: liver microsomes. On the technique in general: Microsomes from liver hold many membrane-bound enzymes, among them those of drug oxidation.
The target of data set [8] is T2, Polyamine deacetylase HDAC10 (Homo sapiens, UniProt Q969S8).
T2 sequence (Q969S8 whole entry): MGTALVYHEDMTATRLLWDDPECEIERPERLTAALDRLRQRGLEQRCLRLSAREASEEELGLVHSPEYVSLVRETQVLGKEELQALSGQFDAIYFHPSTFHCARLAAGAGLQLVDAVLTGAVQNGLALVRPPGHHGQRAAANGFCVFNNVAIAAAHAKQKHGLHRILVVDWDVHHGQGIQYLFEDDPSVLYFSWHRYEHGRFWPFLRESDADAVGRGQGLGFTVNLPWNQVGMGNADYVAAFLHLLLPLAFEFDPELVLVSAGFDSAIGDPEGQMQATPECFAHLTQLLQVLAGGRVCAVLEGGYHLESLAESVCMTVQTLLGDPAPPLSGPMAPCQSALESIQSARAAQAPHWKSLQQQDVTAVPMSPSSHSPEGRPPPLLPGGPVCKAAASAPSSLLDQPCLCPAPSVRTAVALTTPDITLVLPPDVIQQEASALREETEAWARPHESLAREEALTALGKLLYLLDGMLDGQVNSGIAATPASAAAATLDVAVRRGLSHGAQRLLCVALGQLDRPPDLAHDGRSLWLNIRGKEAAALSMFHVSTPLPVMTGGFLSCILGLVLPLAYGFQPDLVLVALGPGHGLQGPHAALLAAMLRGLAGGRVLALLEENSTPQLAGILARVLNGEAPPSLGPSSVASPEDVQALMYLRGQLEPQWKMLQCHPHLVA
The data set can be described thus: Inhibition of HDAC10.

Data set [9] in a line: Elimination half life in mouse at 10 mg/kg, iv. The format is ADME, organism-based. Further details: dose 10 mg/kg, route intravenous. The settings on record: in vivo, read-out: beta t1/2 (converted).
The target in data set [10] is Histone deacetylase 2 (Homo sapiens, UniProt Q92769).
Chain of Histone deacetylase 2 (Q92769 whole entry): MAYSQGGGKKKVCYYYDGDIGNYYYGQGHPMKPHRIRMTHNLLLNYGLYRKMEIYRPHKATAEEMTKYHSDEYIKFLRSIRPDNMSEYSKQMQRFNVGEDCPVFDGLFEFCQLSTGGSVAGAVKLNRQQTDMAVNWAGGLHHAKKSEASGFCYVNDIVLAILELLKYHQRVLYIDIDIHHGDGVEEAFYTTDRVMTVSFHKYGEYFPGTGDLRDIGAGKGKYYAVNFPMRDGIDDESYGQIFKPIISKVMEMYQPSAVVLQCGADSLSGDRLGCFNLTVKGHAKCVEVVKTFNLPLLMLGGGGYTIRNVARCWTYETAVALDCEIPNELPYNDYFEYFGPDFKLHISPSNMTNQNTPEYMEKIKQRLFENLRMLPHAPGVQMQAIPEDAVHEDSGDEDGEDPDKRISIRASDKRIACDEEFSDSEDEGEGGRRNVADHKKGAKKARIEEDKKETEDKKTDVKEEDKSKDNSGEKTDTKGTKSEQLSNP
The nature of data set [11]: Oral bioavailability in mouse at 50 mg/kg, po. Conditions: in vivo.
Data set [12] is described as follows: Solubility at pH 7. The format is physicochemical. The settings on record: buffer.

T1 sequence (Q13547 whole entry): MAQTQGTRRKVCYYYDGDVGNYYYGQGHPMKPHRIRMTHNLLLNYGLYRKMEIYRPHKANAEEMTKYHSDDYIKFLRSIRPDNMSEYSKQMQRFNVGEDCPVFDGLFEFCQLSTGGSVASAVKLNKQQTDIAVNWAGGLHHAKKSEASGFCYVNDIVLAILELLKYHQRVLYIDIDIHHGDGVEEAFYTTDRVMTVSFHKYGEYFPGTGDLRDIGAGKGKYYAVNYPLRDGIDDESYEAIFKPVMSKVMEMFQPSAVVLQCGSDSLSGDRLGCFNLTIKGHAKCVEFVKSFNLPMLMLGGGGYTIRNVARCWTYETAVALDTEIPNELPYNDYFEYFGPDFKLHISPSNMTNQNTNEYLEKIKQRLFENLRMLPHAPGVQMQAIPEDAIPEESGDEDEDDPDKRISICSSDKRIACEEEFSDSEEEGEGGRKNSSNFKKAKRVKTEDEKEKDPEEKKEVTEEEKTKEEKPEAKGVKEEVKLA

`O=C(CCCCCNC(=O)NC(=O)c1ccccc1)NO`: the IC50 (usually the concentration needed to halve the response being measured) in data set [1] came out at 1580 nM; in data set [4] it was 500 nM; in data set [5], 53 nM. In addition, in data set [2], the clearance (as a rule, the volume of plasma or blood freed of the substance per unit of time) was 83.8 mL/min/kg. Also, the Ki (as a rule, a measure of affinity in units of concentration, obtained from inhibition or displacement) worked out at 23 nM in data set [3], 16 nM in data set [5], 40 nM in data set [8] and 44 nM in [10]. Moreover, the result in data set [6] was Active. In addition, the half-life in data set [7] is over 1 h; in data set [9], 1.54 h. The bioavailability (as a rule, the share of a dose that reaches the circulation, judged against a reference dose that is usually intravenous) in [11] was found to be 62%. Moreover, the solubility – broadly, the dissolved amount per volume that the medium holds – in data set [12] worked out at 177 µM (≈ 51.9 µg/mL).

The values above are taken from ChEMBL document CHEMBL1155491, “Acylurea connected straight chain hydroxamates as novel histone deacetylase inhibitors: Synthesis, SAR, and in vivo antitumor activity” (Bioorg Med Chem Lett, 2010).
